Test results from PMC4368105, “Oleic Acid Metabolism via a Conserved Cytochrome P450 System-Mediated ω-Hydroxylation in the Bark Beetle-Associated Fungus Grosmannia clavigera” (PLoS ONE, 2015).

Assays:
[1] = target: T1, GsCYP630B18 with GsCPR2 (RS2) (Leptographium clavigerum, UniProt F0XBA3); experiment: reconstituted membranes, LC/MS of 18-hydroxyoleic acid product; assay type: biochemical; conditions: NADPH, 50 μM oleic acid, pH 7.4, room temperature, 1 h; GsCPR2 as redox partner
T1 construct: gene CMQ_5365; with NADPH--cytochrome P450 reductase
T1 sequence (F0XBA3 1-522): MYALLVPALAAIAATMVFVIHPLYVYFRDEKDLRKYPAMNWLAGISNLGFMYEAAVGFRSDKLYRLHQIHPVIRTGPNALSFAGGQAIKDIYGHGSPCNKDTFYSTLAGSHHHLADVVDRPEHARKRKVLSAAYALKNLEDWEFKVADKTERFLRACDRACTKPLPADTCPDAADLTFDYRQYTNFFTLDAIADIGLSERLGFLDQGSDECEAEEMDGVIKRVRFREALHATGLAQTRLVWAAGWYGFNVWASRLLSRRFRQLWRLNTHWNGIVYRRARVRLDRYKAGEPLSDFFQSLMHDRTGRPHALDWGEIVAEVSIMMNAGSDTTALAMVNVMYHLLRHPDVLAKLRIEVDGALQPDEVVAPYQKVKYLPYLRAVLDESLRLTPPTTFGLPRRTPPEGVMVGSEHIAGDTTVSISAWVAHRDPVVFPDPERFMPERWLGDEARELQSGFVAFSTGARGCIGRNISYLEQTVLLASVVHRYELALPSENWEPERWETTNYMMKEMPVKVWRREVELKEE
T1 sequence (F0XBA4 1-695 partner): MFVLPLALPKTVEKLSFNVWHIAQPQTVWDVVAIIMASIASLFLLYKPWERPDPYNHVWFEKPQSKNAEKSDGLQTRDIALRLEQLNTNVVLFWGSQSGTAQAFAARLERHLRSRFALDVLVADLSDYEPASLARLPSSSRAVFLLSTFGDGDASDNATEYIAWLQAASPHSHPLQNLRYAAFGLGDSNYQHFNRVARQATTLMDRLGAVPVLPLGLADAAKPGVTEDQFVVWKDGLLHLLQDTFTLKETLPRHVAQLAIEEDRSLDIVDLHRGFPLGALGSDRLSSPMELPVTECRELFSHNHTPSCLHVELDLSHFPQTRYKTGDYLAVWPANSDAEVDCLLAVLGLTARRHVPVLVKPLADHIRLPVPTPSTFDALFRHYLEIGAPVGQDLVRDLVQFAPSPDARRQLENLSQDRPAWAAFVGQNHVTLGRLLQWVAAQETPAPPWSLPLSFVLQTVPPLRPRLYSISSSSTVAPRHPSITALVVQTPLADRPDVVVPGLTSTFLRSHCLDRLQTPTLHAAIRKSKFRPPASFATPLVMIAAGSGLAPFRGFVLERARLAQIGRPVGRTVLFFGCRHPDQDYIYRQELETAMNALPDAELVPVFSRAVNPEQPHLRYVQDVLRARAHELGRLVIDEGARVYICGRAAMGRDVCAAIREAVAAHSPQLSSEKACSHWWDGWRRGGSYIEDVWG

[2] = target: T2, GsCYP630B18 with GsCPR1 (RS1) (Leptographium clavigerum, UniProt F0XBA3); experiment: as above; assay type: biochemical; conditions: NADPH, 50 μM oleic acid, pH 7.4, room temperature, 1 h; GsCPR1 as redox partner
T2 construct: gene CMQ_5365; with NADPH--cytochrome P450 reductase
T2 sequence (F0XBA3 1-522): T1 sequence (F0XBA3 1-522)
T2 sequence (F0XUV1 1-690 partner): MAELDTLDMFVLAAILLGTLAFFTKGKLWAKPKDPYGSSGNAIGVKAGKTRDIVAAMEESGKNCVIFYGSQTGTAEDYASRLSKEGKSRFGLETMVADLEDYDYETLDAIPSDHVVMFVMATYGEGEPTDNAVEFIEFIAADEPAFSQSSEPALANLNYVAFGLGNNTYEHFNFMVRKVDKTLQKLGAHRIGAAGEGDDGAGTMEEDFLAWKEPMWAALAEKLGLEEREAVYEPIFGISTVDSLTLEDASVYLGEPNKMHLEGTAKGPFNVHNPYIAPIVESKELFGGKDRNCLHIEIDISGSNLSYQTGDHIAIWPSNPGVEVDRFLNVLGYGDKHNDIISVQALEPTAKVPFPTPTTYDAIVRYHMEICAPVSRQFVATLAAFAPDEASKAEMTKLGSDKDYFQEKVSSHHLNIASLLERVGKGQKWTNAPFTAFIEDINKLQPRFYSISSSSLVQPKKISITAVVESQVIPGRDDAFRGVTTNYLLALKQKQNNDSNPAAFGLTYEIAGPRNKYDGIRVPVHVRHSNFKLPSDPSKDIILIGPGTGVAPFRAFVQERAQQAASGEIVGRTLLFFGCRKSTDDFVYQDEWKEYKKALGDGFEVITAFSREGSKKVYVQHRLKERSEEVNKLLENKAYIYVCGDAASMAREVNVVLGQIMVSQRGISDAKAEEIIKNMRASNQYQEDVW

## CCCCCCCC/C=C\CCCCCCCC(=O)O [oleic acid]
[1]
  reconstituted membranes, LC/MS of 18-hydroxyoleic acid product: CYP630B18 converted oleic acid, but none of the other tested compounds
[2]
  reconstituted membranes, LC/MS of 18-hydroxyoleic acid product: CYP630B18 converted oleic acid, but none of the other tested compounds
